Laboratory results: US20100093716A1, “THERAPEUTIC METHODS USING WRN BINDING MOLECULES” (TRUSTEES OF BOSTON UNIVERSITY AND PRESIDENT AND FELLOWS OF …, priority 2006, published 2010)

Experiments:
[1] = test system: ataxia telanglectasia mutated (ATM) kinase; assay: phosphorylation of ATM at serine 1981 in MM-AN cells, Western blot; format: cell-based, human; details: 40 μM, 48 hours
Method: Phosphorylated ATM in turn phosphorylates, and thus activates, p53. MM-AN cells were treated with diluent (medium or DMSO) alone, 40 μM of […] or 40 μM of SPOX-2 for 48 hours then collected and analyzed by Western blot using an antibody against ATM phosphoserine 1981.

Histone H2AX (γH2AX) [2] = assay: γH2AX formation in human fibroblasts by immunofluorescent microscopy; format: cell-based; details: 48 hours
Method: Phosphorylation of Histone H2AX (forming γH2AX) is a marker for DNA damage in many settings and is also observed at telomeres when cells enter senescence. […] In both experiments, cells were incubated for 48 hours in the presence of SPOX-1 or 11mer T-oligo before processing for immunofluorescent microscopy.

[3] = test system: WRN− U20S human osteosarcoma cells; assay: apoptosis of WRN− U20S cells by FACS analysis; format: cell-based; details: 96 hours; 20 μM
Method: Cultures of WRN+ and WRN− U20S human osteosarcoma cells were treated with either diluent (water or DMSO) alone, 16mer T-oligo (SEQ ID NO: 2) or SPOX-1 for 96 hours, then collected and processed for FACS analysis. One concentration of the 16mer T-oligo was tested, 20 μM, and three concentrations of SPOX-1 were tested, 10 μM, 40 μM and 80 μM.

p21 = p21 level in human fibroblasts, Western blot; format: cell-based; details: 48 hours, compared with diluent alone
Method: (§1) Human fibroblasts were treated with diluent (water or DMSO) alone, SPOX-1, SPOX-2, or 16mer T-oligo (SEQ ID NO: 2) for 48 hours after which total cellular proteins were harvested and Western blot analysis performed using anti-p53 and anti-p21 antibodies.

human fibroblasts = assay: growth of newborn fibroblast cells; format: cell-based; details: 40 μM; growth determined 2 and 4 days after plating
Method: The effect of SPOX compounds on growth of human fibroblasts was tested using cultures of newborn fibroblast cells. Briefly, 20,000 cells were plated per 35 mm dish. Medium containing either diluent (dimethyl sulfoxide (DMSO)) alone, SPOX-1 (40 μM) SPOX-2 (40 μM) or 11mer T-oligo (SEQ ID NO:1) was introduced at 96 hours and growth was determined 2 and 4 days after plating.

[4] = test system: poly(ADP-ribose) polymerase (PARP); assay: PARP cleavage in MCF-7 cells, western blot; format: cell-based, human; details: compared with TNF-α
Method: (§2) Phosphorylation of Histone H2AX (forming γH2AX) was assessed as a marker for DNA damage. Apoptosis was measured by western blot analysis to show cleavage of poly(ADP-ribose) polymerase (PARP). PARP is a substrate for caspase-3, an enzyme that mediates apoptosis, and thus cleavage of PARP by caspase-3 is indicative of ongoing apoptosis. […] Thus, both SPOX compounds induce apoptosis and formation of γH2AX, as a marker of DNA damage-like responses, in the MCF-7 breast cancer cell line.

MCF-7 cells = assay: growth of MCF-7 breast cancer cells; format: cell-based, human; details: for growth of MCF-7 cells: 10 μM; for growth of MCF-7 cells at highest concentration: 80 μM, 3 days after plating; for growth arrest of malignant cells: summary statement
Method: The effect of SPOX compounds on growth and apoptosis of human breast cancer cells was tested using cultures of MCF-7 cells. The effect on cell growth was tested by plating 20,000 cells per 35 mm dish. Medium containing either diluent alone (DMSO), SPOX-1 or SPOX-2 (10 μM, 40 μM and 80 μM) was introduced at 96 hours and growth was determined 8 days after plating.
The effect of SPOX compounds on growth of human breast cancer cells was tested using cultures of MCF-7 cells. The effect on cell growth was tested by plating 20,000 cells per 35 mm dish. Medium containing either diluent (water or DMSO) alone, SPOX-337, SPOX-388, SPOX-343 (10 μM, 40 μM and 80 μM) or 16mer T-oligo (SEQ ID NO: 2) was introduced at 96 hours and growth was determined 3 days after plating.

human skin explants = assay: melanogenesis in human skin explants (Fontana Masson stain, image analysis); format: cell-based; details: 80 uM; 24, 48 and 72 hours; positive control pTT 100 uM
Method: Normal facial skin removed from a person at the time of facelift was carefully cut into fragments approximately 5×5 mm. The fragments were placed in tissue culture dishes in standard culture medium, under conditions known to maintain the fragments in good condition, responsive to physiologic stimuli, for at least one week (Arad et al, FASEB J. Jul. 28, 2006. [Epub]). Fragments were arranged with at least 3 per 35 mm dish and after 48 hours, one dish each was provided with fresh medium containing diluent (DMSO) alone (Dil) or SPOX-1 or SPOX-2 each at 80 uM or thymidine dinucleotide (pTT) at 100 uM as a positive control. […] The 72 hour diluent (Dil) control sample was judged to be bacterially contaminated, affecting both the overall histology and the apparent melanin content, which based on earlier experiments would be expected to be the same as at 24 and 48 hours. All other samples were believed to be healthy and to accurately represent the response to treatment.

[5] = test system: MM-AN human melanoma cells; assay: growth of MM-AN melanoma cells; format: cell-based; details: 40 μM; 2, 3 and 4 days after treatment
Method: The effect of SPOX compounds on growth of human melanoma cells was tested using cultures of MM-AN cells. Briefly, 20,000 MM-AN cells were plated per 35 mm dish. Medium containing either diluent (DMSO) alone, SPOX-1 or SPOX-2 (40 μM) was introduced at 96 hours and growth was determined 2, 3 and 4 days after treatment.

[6] = test system: H460 human lung cancer cells; assay: growth of H460 lung cancer cells; format: cell-based; details: 40 μM; 1, 2, 3 and 4 days after plating
Method: The effect of SPOX compounds on growth of human lung cancer cells was tested using cultures of H460 cells. Briefly, 20,000H460 cells were plated per 35 mm dish. Medium containing either diluent (DMSO) alone, SPOX-1 or SPOX-2 (40 μM) was introduced at 96 hours and growth was determined 1, 2, 3 and 4 days after plating.

[7] = test system: MM-AN human melanoma cells; assay: apoptosis of MM-AN melanoma cells by FACS analysis (propidium iodide); format: cell-based; details: 10 μM, 40 μM and 80 μM
Method: Cultures of MM-AN human melanoma cells were treated with diluent (water or DMSO) alone, a T-oligo (16mer: 5′ GTTAGGGTTAGGGTTA 3′; SEQ ID NO: 2), SPOX-1, or SPOX-2 for 96 hours, then collected and processed for FACS analysis. One concentration of the T-oligo (20 μM) and three concentrations of each SPOX compound (10 μM, 40 μM and 80 μM) were tested. Each bar is the mean of triplicate dishes +/− standard error of the mean (SEM). FACS profiles are depicted at the top of the figure.
Cultures of MM-AN human melanoma cells were treated with diluent (water or DMSO) alone, 16mer T-oligo (SEQ ID NO: 2), SPOX-337, SPOX-338 or SPOX-343 for 72 hours, then collected and processed for FACS analysis. One concentration of the T-oligo (20 μM) and three concentrations of each SPOX compound (10 μM, 40 μM and 80 μM) were tested.

p53 = p53 level in human fibroblasts, Western blot; format: cell-based; details: 48 hours, compared with diluent alone
Method: as §1

survivin = survivin expression in H460 lung cancer cells; format: cell-based, human
Method: The ability of the SPOX compounds to inhibit expression of survivin, a member of the Inhibitor of Apoptosis Protein (IAP) family, was determined by treating H460 human lung cancer cells for two days with diluent (DMSO) alone, SPOX-1 (20 μM, 40 μM), SPOX-2 (20 μM, 40 μM) and T-oligo (16mer: 5′ GGTTGGTTGGTTGGTT 3′; SEQ ID NO: 3) (20 μM, 40 μM) or for 24 hours with SPOX-1 (80 μM) or SPOX-2 (80 μM). Following treatment, cells were collected, counted, and assayed for survivin expression. The results are depicted in FIG. 15.

Histone H2AX (γH2AX) [8] = assay: γH2AX formation in MCF-7 cells, western blot; format: cell-based, human; details: compared with 16mer T-oligo
Method: as §2

[9] = 40 μM and 80 μM, growth determined 3 days after plating

## 11mer T-oligo: telomere homolog oligonucleotide, 11mer: 5′ GTTAGGGTTAG 3′; SEQ ID NO: 1 (listed as DNA, further chemistry not given here) [reference compound]
[1]
  phosphorylation of ATM at serine 1981: induce phosphorylation of ATM
Histone H2AX (γH2AX) [2]
  γH2AX expression: induce γH2AX expression

## 16mer T-oligo (SEQ ID NO: 2): telomere homolog oligonucleotide, 16mer: 5′ GTTAGGGTTAGGGTTA 3′; SEQ ID NO: 2 (listed as DNA, further chemistry not given here) [reference compound]
[3]
  induction of apoptosis in WRN− versus WRN+ U20S cells: less effective in inducing apoptosis in WRN− than in U20S cells with intact WRN

## C=CCOC(=O)C1C2C(=O)OC(c3ccccc3)C(c3ccccc3)N2C(c2ccc(O)cc2)C12C(=O)Nc1ccc(I)cc12 (stereo not drawn) [SPOX-2]
p21
  level of p21: induced the level of the p53-dependent downstream effector protein p21 to a similar degree as 16mer T-oligo
Human fibroblasts
  growth of human fibroblast cells: inhibited growth
[4]
  PARP cleavage: cause PARP cleavage
MCF-7 cells; 40 μM and 80 μM, growth determined 8 days after plating
  growth of MCF-7 cells: inhibited growth of MCF-7 cells in a dose-dependent manner
MCF-7 cells; 40 μM and 80 μM, 8 days after plating
  growth of MCF-7 cells at higher concentrations: nearly complete inhibition of growth
Human skin explants
  melanogenesis (tanning) in human skin: caused tanning, comparable to pTT
[5]
  growth of MM-AN cells: inhibited growth
[6]
  growth of H460 cells: inhibited growth
[7]; 96 hours
  induction of apoptosis: induced apoptosis
[1]
  phosphorylation of ATM at serine 1981: induce phosphorylation of ATM
p53
  level of p53: induced the level of p53
survivin; 24 hours, 80 μM
  survivin expression at 80 μM: reduced survivin expression to nearly undetectable levels
survivin; 2 days, 20 μM, 40 μM
  survivin expression: dose-dependent reduction in survivin expression
survivin; 2 days, 40 μM
  survivin expression at 40 μM: nearly undetectable
Histone H2AX (γH2AX) [8]
  phosphorylation of histone H2AX (γH2AX): cause phosphorylation of the histone protein H2AX

## C=CCOC(=O)C1C2C(=O)OC(c3ccccc3)C(c3ccccc3)N2C(c2ccc(OCCO)cc2)C12C(=O)Nc1ccc(I)cc12 (stereo not drawn) [SPOX-337]
MCF-7 cells; [9]
  growth of MCF-7 cells: inhibited growth of MCF-7 cells in a dose-dependent manner
MCF-7 cells
  growth of MCF-7 cells at highest concentration: nearly complete inhibition of growth
  growth arrest of malignant cells: retain the capability of arresting the growth of malignant cells
[7]; 72 hours
  induction of apoptosis: induced apoptosis with SPOX-337 and SPOX-343 having greatest effect

## C=CCOC(=O)C1C2C(=O)OC(c3ccccc3)C(c3ccccc3)N2C(c2ccc(OCCO)cc2)C12C(=O)Nc1ccccc12 (stereo not drawn) [SPOX-338]
MCF-7 cells; [9]
  growth of MCF-7 cells: inhibited growth of MCF-7 cells in a dose-dependent manner
MCF-7 cells
  growth of MCF-7 cells at highest concentration: nearly complete inhibition of growth
  growth arrest of malignant cells: retain the capability of arresting the growth of malignant cells
[7]; 72 hours
  induction of apoptosis: induced apoptosis

## C=CCOC(=O)C1C2C(=O)OC(c3ccccc3)C(c3ccccc3)N2C(c2ccc(O)cc2)C12C(=O)Nc1ccccc12 (stereo not drawn) [SPOX-343]
MCF-7 cells; [9]
  growth of MCF-7 cells: inhibited growth of MCF-7 cells in a dose-dependent manner
MCF-7 cells
  growth of MCF-7 cells at highest concentration: nearly complete inhibition of growth
  growth arrest of malignant cells: retain the capability of arresting the growth of malignant cells
[7]; 72 hours
  induction of apoptosis: induced apoptosis with SPOX-337 and SPOX-343 having greatest effect
